# ChEMBL document CHEMBL4385643, “Design of a brain-penetrant CDK4/6 inhibitor for glioblastoma” (Bioorg Med Chem Lett, 2019)
# Columns and labels:
# [1] = target: Proto-oncogene tyrosine-protein kinase receptor Ret (Homo sapiens) (UniProt P07949); test: Inhibition of recombinant human GST-tagged RET (658 to 1114 residues) expressed in baculovirus expression system at 0.1 uM using tyrosine-2 peptide as substrate incubated for 60 mins by Z'-LYTE assay relative to control
# [2] = target: Calcium/calmodulin-dependent protein kinase type II subunit beta (Homo sapiens) (UniProt Q13554); test: Inhibition of recombinant full length human His-tagged CAMK2beta expressed in baculovirus expression system at 0.1 uM using serine/threonine-17 peptide as substrate incubated for 60 mins by Z'-LYTE assay relative to control
# [3] = target: MAP kinase-activated protein kinase 2 (Homo sapiens) (UniProt P49137); test: Inhibition of recombinant full length human His-tagged MAPKAPK2 expressed in Escherichia coli expression system at 0.1 uM using serine/threonine-4 peptide as substrate incubated for 60 mins by Z'-LYTE assay relative to control
# [4] = target: Tyrosine-protein kinase ZAP-70 (Homo sapiens) (UniProt P43403); test: Inhibition of recombinant full length human His-tagged ZAP70 expressed in baculovirus expression system at 0.1 uM using tyrosine-7 peptide as substrate incubated for 60 mins by Z'-LYTE assay relative to control
# [5] = target: Casein kinase I isoform epsilon (Homo sapiens) (UniProt P49674); test: Inhibition of recombinant full length human His-tagged CK1 epsilon1 expressed in baculovirus expression system at 0.1 uM using serine/threonine-11 peptide as substrate incubated for 60 mins by Z'-LYTE assay relative to control
# [6] = target: Myosin light chain kinase (Homo sapiens) (UniProt Q32MK0); test: Inhibition of tracer 236 binding to recombinant full length human GST-tagged MYLK3 expressed in baculovirus expression system at 0.1 uM measured after 60 mins by Lanthascreen assay relative to control
# [7] = target: Serine/threonine-protein kinase B-raf (Homo sapiens) (UniProt P15056); test: Inhibition of recombinant full length human GST-tagged BRAF expressed in baculovirus expression system at 0.1 uM using serine/threonine-3 peptide as substrate incubated for 60 mins by Z'-LYTE assay relative to control
# [8] = target: Serine/threonine-protein kinase 24 (Homo sapiens) (UniProt Q9Y6E0); test: Inhibition of recombinant full length human GST-tagged MST3 expressed in baculovirus expression system at 0.1 uM using serine/threonine-7 peptide as substrate incubated for 60 mins by Z'-LYTE assay relative to control
# [9] = target: Receptor tyrosine-protein kinase erbB-4 (Homo sapiens) (UniProt Q15303); test: Inhibition of recombinant human GST-tagged ERBB4 catalytic domain (708 to 993 residues) expressed in baculovirus expression system at 0.1 uM using tyrosine-1 peptide as substrate incubated for 60 mins by Z'-LYTE assay relative to control
# [10] = target: Rho-associated protein kinase 2 (Homo sapiens) (UniProt O75116); test: Inhibition of recombinant human GST-tagged ROCK2 catalytic domain (1 to 552 residues) expressed in baculovirus expression system at 0.1 uM using serine/threonine-13 peptide as substrate incubated for 60 mins by Z'-LYTE assay relative to control
# [11] = target: Serine/threonine-protein kinase 3 (Homo sapiens) (UniProt Q13188); test: Inhibition of recombinant full length human GST-tagged MST2 expressed in baculovirus expression system at 0.1 uM using serine/threonine-7 peptide as substrate incubated for 60 mins by Z'-LYTE assay relative to control
# [12] = target: Serine/threonine-protein kinase PAK 1 (Homo sapiens) (UniProt Q13153); test: Inhibition of recombinant full length human GST-tagged PAK1 expressed in baculovirus expression system at 0.1 uM using serine/threonine-19 peptide as substrate incubated for 60 mins by Z'-LYTE assay relative to control
# [13] = target: MAP kinase-activated protein kinase 3 (Homo sapiens) (UniProt Q16644); test: Inhibition of recombinant full length human His-tagged MAPKAPK3 expressed in baculovirus expression system at 0.1 uM using serine/threonine-4 peptide as substrate incubated for 60 mins by Z'-LYTE assay relative to control
# [14] = target: Casein kinase I isoform gamma-1 (Homo sapiens) (UniProt Q9HCP0); test: Inhibition of recombinant full length human GST-tagged CK1 gamma 1 expressed in baculovirus expression system at 0.1 uM using serine/threonine-5 peptide as substrate incubated for 60 mins by Z'-LYTE assay relative to control
# [15] = target: Phosphorylase b kinase gamma catalytic chain, liver/testis isoform (Homo sapiens) (UniProt P15735); test: Inhibition of recombinant full length human GST-tagged PHKG2 expressed in baculovirus expression system at 0.1 uM using serine/threonine-7 peptide as substrate incubated for 60 mins by Z'-LYTE assay relative to control
# [16] = target: Phosphatidylinositol 4,5-bisphosphate 3-kinase catalytic subunit gamma isoform (Homo sapiens) (UniProt P48736); test: Inhibition of recombinant human GST-tagged PI3Kgamma catalytic domain (468 to 1203 residues) expressed in insect expression system at 0.1 uM using PI Lipid Kinase as substrate incubated for 60 mins by Adapta assay relative to control
# [17] = target: Sphingosine kinase 1 (Homo sapiens) (UniProt Q9NYA1); test: Inhibition of recombinant full length human GST-tagged SPHK1 expressed in baculovirus expression system at 0.1 uM using Sphingosine Lipid as substrate incubated for 60 mins by Adapta assay relative to control
# [18] = target: Mitogen-activated protein kinase 1 (Homo sapiens) (UniProt P28482); test: Inhibition of recombinant full length human GST-tagged ERK2 expressed in Escherichia coli expression system at 0.1 uM using serine/threonine-3 peptide as substrate incubated for 60 mins by Z'-LYTE assay relative to control
# [19] = target: Protein kinase C beta type (Homo sapiens) (UniProt P05771); test: Inhibition of recombinant full length human GST-tagged PKCbeta1 expressed in insect expression system at 0.1 uM using serine/threonine-7 peptide as substrate incubated for 60 mins by Z'-LYTE assay relative to control
# [20] = target: Serine/threonine-protein kinase Sgk3 (Homo sapiens) (UniProt Q96BR1); test: Inhibition of recombinant human GST-tagged SGK3 catalytic domain (87 to 496 residues) expressed in baculovirus expression system at 0.1 uM using serine/threonine-6 peptide as substrate incubated for 60 mins by Z'-LYTE assay relative to control
# [21] = target: Dual specificity tyrosine-phosphorylation-regulated kinase 1A (Homo sapiens) (UniProt Q13627); test: Inhibition of recombinant full length human GST-tagged DYRK1A expressed in baculovirus expression system at 0.1 uM using serine/threonine-18 peptide as substrate incubated for 60 mins by Z'-LYTE assay relative to control
# [22] = target: Phosphatidylinositol 4,5-bisphosphate 3-kinase catalytic subunit alpha isoform (Homo sapiens) (UniProt P42336); test: Inhibition of recombinant full length human GST-tagged PI3Kalpha expressed in baculovirus expression system at 0.1 uM using PI Lipid Kinase as substrate incubated for 60 mins by Adapta assay relative to control
# [23] = target: Homeodomain-interacting protein kinase 1 (Homo sapiens) (UniProt Q86Z02); test: Inhibition of recombinant human GST-tagged HIPK1 catalytic domain (158 to 555 residues) expressed in baculovirus expression system at 0.1 uM using serine/threonine-9 peptide as substrate incubated for 60 mins by Z'-LYTE assay relative to control
# Sequence of Myosin light chain kinase (Homo sapiens) (Q32MK0 whole entry): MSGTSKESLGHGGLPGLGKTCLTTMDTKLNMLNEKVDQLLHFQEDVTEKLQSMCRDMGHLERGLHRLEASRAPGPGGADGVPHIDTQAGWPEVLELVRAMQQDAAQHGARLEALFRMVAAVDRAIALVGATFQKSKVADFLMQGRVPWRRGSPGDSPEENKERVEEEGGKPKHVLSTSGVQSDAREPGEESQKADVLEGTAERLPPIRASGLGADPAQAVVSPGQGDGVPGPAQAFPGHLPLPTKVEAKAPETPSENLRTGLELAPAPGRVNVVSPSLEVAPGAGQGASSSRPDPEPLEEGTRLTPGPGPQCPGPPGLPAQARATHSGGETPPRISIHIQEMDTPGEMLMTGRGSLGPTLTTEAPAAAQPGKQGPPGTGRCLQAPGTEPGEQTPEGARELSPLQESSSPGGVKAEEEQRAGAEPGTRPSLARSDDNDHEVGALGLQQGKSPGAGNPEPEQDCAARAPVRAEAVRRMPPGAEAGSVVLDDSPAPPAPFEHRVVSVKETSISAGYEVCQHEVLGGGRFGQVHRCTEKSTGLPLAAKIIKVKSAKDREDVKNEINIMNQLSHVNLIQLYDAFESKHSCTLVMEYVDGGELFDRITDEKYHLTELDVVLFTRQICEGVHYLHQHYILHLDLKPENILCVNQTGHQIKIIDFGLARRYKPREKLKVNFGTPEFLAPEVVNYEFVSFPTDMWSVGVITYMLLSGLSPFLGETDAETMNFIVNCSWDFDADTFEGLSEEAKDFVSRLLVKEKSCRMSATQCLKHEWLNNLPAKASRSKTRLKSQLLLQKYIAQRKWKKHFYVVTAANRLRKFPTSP
# Sequence of MAP kinase-activated protein kinase 3 (Homo sapiens) (Q16644 whole entry, looked up, canonical isoform): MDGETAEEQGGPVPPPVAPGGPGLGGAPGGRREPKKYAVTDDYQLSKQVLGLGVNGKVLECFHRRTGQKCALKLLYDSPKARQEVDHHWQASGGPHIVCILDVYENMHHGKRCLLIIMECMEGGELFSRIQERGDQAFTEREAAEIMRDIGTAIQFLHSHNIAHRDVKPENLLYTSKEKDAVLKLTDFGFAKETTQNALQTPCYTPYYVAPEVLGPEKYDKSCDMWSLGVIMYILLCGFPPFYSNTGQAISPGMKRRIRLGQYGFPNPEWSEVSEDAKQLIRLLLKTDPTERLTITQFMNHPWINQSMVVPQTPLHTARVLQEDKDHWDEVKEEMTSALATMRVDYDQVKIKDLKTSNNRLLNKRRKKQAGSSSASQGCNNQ
# Sequence of Serine/threonine-protein kinase 24 (Homo sapiens) (Q9Y6E0 whole entry, looked up, the tested form may be a part): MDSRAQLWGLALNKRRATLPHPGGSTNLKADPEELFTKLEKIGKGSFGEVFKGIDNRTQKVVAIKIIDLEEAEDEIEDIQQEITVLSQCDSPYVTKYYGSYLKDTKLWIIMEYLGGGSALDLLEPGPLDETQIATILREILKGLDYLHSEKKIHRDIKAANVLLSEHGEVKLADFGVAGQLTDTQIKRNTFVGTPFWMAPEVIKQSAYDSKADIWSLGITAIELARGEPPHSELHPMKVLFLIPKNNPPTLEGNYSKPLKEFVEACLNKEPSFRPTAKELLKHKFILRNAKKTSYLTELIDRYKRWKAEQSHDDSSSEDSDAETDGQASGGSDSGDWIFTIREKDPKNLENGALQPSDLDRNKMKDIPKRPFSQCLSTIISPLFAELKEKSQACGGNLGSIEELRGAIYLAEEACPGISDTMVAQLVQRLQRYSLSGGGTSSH
# Sequence of Phosphatidylinositol 4,5-bisphosphate 3-kinase catalytic subunit alpha isoform (Homo sapiens) (P42336 whole entry, the tested form may be a part, canonical isoform): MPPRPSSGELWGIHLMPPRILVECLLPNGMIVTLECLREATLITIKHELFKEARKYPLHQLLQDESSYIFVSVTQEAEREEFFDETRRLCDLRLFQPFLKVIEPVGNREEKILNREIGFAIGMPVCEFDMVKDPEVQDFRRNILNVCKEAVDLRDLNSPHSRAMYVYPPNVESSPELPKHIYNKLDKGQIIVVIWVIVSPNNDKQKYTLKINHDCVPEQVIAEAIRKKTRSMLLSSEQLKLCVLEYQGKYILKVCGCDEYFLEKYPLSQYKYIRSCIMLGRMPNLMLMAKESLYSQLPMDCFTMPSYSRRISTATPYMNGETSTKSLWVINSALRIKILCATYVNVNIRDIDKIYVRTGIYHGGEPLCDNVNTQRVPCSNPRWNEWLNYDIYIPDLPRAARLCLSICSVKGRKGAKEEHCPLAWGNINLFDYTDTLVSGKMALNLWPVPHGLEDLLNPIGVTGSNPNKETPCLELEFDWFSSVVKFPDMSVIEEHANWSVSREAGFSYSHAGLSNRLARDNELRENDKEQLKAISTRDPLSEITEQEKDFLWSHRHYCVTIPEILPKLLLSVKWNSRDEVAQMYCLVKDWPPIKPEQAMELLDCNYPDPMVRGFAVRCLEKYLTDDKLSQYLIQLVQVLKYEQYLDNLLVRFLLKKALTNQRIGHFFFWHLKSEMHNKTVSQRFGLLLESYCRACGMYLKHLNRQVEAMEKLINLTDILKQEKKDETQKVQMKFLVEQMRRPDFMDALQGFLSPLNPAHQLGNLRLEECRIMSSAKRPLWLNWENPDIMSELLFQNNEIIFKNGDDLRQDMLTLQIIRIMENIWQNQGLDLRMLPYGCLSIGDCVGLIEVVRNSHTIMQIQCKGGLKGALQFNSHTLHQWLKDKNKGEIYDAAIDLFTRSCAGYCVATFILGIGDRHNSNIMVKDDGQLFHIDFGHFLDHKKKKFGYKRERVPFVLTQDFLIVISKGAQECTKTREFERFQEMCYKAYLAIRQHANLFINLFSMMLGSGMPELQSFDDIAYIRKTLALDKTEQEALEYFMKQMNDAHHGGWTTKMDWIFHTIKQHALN
# Sequence of Receptor tyrosine-protein kinase erbB-4 (Homo sapiens) (Q15303 whole entry, the tested form may be a part): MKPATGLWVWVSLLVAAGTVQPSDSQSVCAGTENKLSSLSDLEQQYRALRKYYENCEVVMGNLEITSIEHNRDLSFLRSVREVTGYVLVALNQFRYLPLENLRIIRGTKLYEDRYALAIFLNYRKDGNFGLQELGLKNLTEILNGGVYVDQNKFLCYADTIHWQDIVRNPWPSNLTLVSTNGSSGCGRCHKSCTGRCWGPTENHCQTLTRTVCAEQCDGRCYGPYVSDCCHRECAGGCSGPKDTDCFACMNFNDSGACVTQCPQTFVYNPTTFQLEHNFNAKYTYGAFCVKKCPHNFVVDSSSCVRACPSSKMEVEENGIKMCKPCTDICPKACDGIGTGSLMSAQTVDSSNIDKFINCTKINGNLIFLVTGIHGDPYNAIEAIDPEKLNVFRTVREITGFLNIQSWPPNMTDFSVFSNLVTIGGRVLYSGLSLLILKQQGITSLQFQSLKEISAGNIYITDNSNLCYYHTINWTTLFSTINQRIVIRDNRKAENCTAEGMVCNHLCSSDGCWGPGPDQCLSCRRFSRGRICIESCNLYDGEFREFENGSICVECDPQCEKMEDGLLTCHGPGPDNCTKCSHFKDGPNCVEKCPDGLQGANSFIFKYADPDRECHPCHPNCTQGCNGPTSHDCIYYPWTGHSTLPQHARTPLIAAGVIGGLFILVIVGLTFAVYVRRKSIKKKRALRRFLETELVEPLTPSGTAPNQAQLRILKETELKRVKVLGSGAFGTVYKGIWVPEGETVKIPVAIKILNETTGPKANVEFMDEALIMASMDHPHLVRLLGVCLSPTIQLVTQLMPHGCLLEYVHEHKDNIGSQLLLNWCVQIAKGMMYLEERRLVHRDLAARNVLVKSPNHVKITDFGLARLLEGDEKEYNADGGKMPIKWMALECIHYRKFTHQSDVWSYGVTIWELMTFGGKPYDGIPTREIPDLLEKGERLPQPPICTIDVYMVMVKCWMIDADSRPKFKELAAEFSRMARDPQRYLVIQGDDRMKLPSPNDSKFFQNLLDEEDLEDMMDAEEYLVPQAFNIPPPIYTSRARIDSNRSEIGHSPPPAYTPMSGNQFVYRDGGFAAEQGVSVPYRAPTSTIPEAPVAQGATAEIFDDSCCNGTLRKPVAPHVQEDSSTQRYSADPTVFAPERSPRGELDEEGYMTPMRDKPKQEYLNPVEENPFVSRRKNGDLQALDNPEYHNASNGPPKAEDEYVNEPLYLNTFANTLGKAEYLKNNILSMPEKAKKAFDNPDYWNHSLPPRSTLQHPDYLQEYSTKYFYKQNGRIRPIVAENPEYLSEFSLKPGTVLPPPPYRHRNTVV
# Sequence of Serine/threonine-protein kinase PAK 1 (Homo sapiens) (Q13153 whole entry): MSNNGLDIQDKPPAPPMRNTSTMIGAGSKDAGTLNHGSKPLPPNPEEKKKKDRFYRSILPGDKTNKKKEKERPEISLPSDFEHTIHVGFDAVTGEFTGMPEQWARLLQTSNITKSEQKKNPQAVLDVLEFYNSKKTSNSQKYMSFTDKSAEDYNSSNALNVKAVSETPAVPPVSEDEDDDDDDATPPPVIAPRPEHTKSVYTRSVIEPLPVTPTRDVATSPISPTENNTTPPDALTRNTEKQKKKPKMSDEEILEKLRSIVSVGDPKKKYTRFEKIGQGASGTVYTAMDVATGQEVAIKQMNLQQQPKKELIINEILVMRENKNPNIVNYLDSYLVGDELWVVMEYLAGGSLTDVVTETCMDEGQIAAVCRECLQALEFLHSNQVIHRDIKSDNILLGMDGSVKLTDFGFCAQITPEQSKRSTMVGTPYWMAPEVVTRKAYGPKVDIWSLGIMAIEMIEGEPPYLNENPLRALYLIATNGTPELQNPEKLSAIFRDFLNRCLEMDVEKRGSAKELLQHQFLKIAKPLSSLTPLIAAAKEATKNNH
# Sequence of Mitogen-activated protein kinase 1 (Homo sapiens) (P28482 whole entry): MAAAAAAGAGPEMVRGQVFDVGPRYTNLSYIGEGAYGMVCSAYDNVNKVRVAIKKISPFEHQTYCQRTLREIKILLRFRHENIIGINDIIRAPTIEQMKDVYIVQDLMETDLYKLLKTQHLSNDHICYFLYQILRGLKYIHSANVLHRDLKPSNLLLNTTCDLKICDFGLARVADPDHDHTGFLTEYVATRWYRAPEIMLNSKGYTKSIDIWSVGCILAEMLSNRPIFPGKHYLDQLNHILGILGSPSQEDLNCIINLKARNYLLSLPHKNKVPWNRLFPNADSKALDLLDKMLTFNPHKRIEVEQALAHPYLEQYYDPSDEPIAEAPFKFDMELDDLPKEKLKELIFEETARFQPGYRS
SMILES,inhibition [1] [%],inhibition [2] [%],inhibition [3] [%],inhibition [4] [%],inhibition [5] [%],inhibition [6] [%],inhibition [7] [%],inhibition [8] [%],inhibition [9] [%],inhibition [10] [%],inhibition [11] [%],inhibition [12] [%],inhibition [13] [%],inhibition [14] [%],inhibition [15] [%],inhibition [16] [%],inhibition [17] [%],inhibition [18] [%],inhibition [19] [%],inhibition [20] [%],other results
CCN1CCN(Cc2ccc(Nc3ncc(F)c(-c4cc(F)c5nc(C)n(C(C)C)c5c4)n3)nc2)CC1 [ABEMACICLIB],5.5,88,14.5,-0.5,8,30.8,4.5,17,3,18.5,13,3.5,9,-0.5,7,-6.3,14.7,8,38,12,inhibition [21]: 92.5%; inhibition [22]: 4%; inhibition [23]: 78.5%
CCN1CC2(C1)CN(c1ccc(Nc3ncc(F)c(-c4cnn5c4[C@H](C)CCCC5)n3)nc1)C2,13.5,20.5,4.5,7,7.5,19.5,4,18.5,-6.5,7,4,15.5,1,1.5,23,2,1.5,6,4.5,7,inhibition [21]: 26.5%; inhibition [22]: 1.5%; inhibition [23]: 4.5%
